From ChEMBL document CHEMBL1153434, “Pyridoimidazolones as novel potent inhibitors of v-Raf murine sarcoma viral oncogene homologue B1 (BRAF)” (J Med Chem, 2009)
pIC50: −log10 of the molar value.

Key:
[1] = Growth inhibition of human WM266.4 cells expressing BRAF mutant by SRB assay; format: functional, cell-based; details: WM 266-4
[2] = target: Serine/threonine-protein kinase B-raf (Homo sapiens, UniProt P15056, V600E)
Description: Inhibition of BRAF V600E mutant

[3] = Clearance in plasma of BRAF mutant expressing WM266.4 cells xenografted Crl:CD1-Foxn1nu mouse at 2 mg/kg, iv; format: ADME, organism-based; design: dose 2 mg/kg, route intravenous
[4] = Metabolic stability in mouse liver microsomes assessed as drug metabolism at 10 uM; format: ADME, Microsome; details: read-out: Activity
[5] = Cmax in tumor of BRAF mutant expressing WM266.4 cells xenografted Crl:CD1-Foxn1nu mouse at 2 mg/kg, iv; format: ADME, organism-based, Neoplasm; design: dose 2 mg/kg, route intravenous; details: read-out: Cmax_tumor
[6] = Cmax in plasma of BRAF mutant expressing WM266.4 cells xenografted Crl:CD1-Foxn1nu mouse at 2 mg/kg, iv; format: ADME, organism-based; design: dose 2 mg/kg, route intravenous
[7] = Half life in plasma of BRAF mutant expressing WM266.4 cells xenografted Crl:CD1-Foxn1nu mouse at 2 mg/kg, iv; format: ADME, organism-based; design: dose 2 mg/kg, route intravenous
[8] = Half life in tumor of BRAF mutant expressing WM266.4 cells xenografted Crl:CD1-Foxn1nu mouse at 2 mg/kg, iv; format: ADME, organism-based, Neoplasm; design: dose 2 mg/kg, route intravenous
[9] = AUC in plasma of BRAF mutant expressing WM266.4 cells xenografted Crl:CD1-Foxn1nu mouse at 2 mg/kg, iv; format: ADME, organism-based; design: dose 2 mg/kg, route intravenous
[10] = Clearance in tumor of BRAF mutant expressing WM266.4 cells xenografted Crl:CD1-Foxn1nu mouse at 2 mg/kg, iv; format: ADME, organism-based, Neoplasm; design: dose 2 mg/kg, route intravenous; details: in vivo
[11] = AUC in tumor of BRAF mutant expressing WM266.4 cells xenografted Crl:CD1-Foxn1nu mouse at 2 mg/kg, iv; format: ADME, organism-based, Neoplasm; design: dose 2 mg/kg, route intravenous
[12] = AUC in BALB/cAnNCrl mouse muscle at 2 mg/kg, iv; format: ADME, organism-based, Muscle tissue; design: dose 2 mg/kg, route intravenous
[13] = Half life in BALB/cAnNCrl mouse plasma at 2 mg/kg, iv; format: ADME, organism-based; design: dose 2 mg/kg, route intravenous
[14] = Clearance in BALB/cAnNCrl mouse plasma at 2 mg/kg, iv; format: ADME, organism-based; design: dose 2 mg/kg, route intravenous
Muscle tissue = assay: Clearance in BALB/cAnNCrl mouse muscle at 2 mg/kg, iv; format: ADME, organism-based; design: dose 2 mg/kg, route intravenous; details: in vivo
[15] = AUC in BALB/cAnNCrl mouse plasma at 2 mg/kg, iv; format: ADME, organism-based; design: dose 2 mg/kg, route intravenous
[16] = Half life in BALB/cAnNCrl mouse muscle at 2 mg/kg, iv; format: ADME, organism-based, Muscle tissue; design: dose 2 mg/kg, route intravenous
[17] = Cmax in BALB/cAnNCrl mouse plasma at 2 mg/kg, iv; format: ADME, organism-based; design: dose 2 mg/kg, route intravenous
[18] = Cmax in BALB/cAnNCrl mouse muscle at 2 mg/kg, iv; format: ADME, organism-based, Muscle tissue; design: dose 2 mg/kg, route intravenous

Chain of Serine/threonine-protein kinase B-raf (P15056 2-766 V600E limits assumed): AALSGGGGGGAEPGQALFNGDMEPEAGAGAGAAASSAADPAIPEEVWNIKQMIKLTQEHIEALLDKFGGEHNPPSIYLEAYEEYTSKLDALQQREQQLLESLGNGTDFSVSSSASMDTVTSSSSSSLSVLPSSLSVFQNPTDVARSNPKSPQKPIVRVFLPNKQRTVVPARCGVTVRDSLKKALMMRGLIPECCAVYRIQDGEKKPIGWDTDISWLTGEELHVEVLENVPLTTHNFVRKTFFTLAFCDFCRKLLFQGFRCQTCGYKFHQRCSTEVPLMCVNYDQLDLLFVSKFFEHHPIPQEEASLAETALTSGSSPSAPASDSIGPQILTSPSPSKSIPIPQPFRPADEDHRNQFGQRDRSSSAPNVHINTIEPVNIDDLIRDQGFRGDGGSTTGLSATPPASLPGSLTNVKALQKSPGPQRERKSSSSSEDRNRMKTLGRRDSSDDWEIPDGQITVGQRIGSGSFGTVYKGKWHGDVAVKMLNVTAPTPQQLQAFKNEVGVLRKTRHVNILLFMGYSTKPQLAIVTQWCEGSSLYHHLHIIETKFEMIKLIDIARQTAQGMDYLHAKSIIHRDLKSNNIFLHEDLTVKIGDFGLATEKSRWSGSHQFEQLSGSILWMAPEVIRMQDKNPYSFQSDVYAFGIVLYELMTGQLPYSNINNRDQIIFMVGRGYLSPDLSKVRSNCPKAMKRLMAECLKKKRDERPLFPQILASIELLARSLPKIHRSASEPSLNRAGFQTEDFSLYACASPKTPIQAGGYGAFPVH

Row | pIC50 [2] | SMILES | pIC50 [1] | further results
1 | < 4.00 | O=C(Cc1cc(F)cc(F)c1)Nc1ccc(Oc2ccnc3[nH]c(=O)[nH]c23)cc1 | 4.54 | 
2 | 7.22 | Cn1c(=O)[nH]c2c(Oc3ccc(NC(=O)Nc4cccc(C(C)(C)C)c4)cc3)ccnc21 | 5.15 | 
3 | 7.85 | O=C(Nc1ccc(Oc2ccnc3[nH]c(=O)[nH]c23)cc1)Nc1cccc(C(F)(F)F)c1 | < 4.00 | 
4 | 5.55 | O=C(Nc1ccc(Oc2ccnc3[nH]c(=O)[nH]c23)cc1)Nc1cccc(F)c1 | 4.86 | 
5 | 7.55 | O=C(Nc1ccc(Sc2ccnc3[nH]c(=O)[nH]c23)cc1)Nc1cccc(C(F)(F)F)c1 | 5.85 | 
6 | 4.85 | O=C(Nc1ccc(Oc2ccnc3[nH]c(=O)[nH]c23)cc1)c1cccc(Br)c1 | 4.74 | 
7 | < 4.00 | O=C(Nc1ccc(Oc2ccnc3[nH]c(=O)[nH]c23)cc1)c1cccc(OC(F)(F)F)c1 | < 4.00 | 
8 | 4.78 | O=C(Cc1ccccc1)Nc1ccc(Oc2ccnc3[nH]c(=O)[nH]c23)cc1 | 4.14 | 
9 |  | O=C(Cc1cccc(OC(F)(F)F)c1)Nc1ccc(Oc2ccnc3[nH]c(=O)[nH]c23)cc1 | 4.62 | 
10 | 7.64 | O=C(Nc1ccc(Oc2ccnc3[nH]c(=O)[nH]c23)cc1)Nc1ccc(Cl)c(C(F)(F)F)c1 | 5.38 | clearance [3]: 1.95 mL/min; metabolised at 10 µM [4]: 0%; Cmax [5]: 207 nM; Cmax [6]: 1060 nM; half-life [7]: 0.8 h; half-life [8]: 1.24 h; AUC [9]: 0.718 µM·h; CL [10]: 0.16 L/h; AUC [11]: 0.468 µM·h
11 | 4.76 | O=C(Nc1ccc(Oc2ccnc3[nH]c(=O)[nH]c23)cc1)c1cccc(C(F)(F)F)c1 | 4.66 | 
12 | < 4.00 | O=C(Nc1ccc(Oc2ccnc3[nH]c(=O)[nH]c23)cc1)Nc1ccc(C(F)(F)F)cc1 | < 4.00 | 
13 | 6.22 | O=C(Nc1ccc(Oc2ccnc3[nH]c(=O)[nH]c23)cc1)Nc1cc(F)cc(N2CCOCC2)c1 | 4.39 | 
14 | < 4.00 | O=C(Nc1ccc(Oc2ccnc3[nH]c(=O)[nH]c23)cc1)Nc1ccccc1C(F)(F)F | < 4.00 | 
15 | 7.54 | O=C(Nc1ccc(Sc2ccnc3[nH]c(=O)[nH]c23)cc1)Nc1cc(C(F)(F)F)ccc1F | 5.89 | 
16 | 7.92 | COc1ccc(C(F)(F)F)cc1NC(=O)Nc1ccc(Oc2ccnc3[nH]c(=O)[nH]c23)cc1 | 5.38 | 
17 | 6.07 | O=C(Nc1ccc(Oc2ccnc3[nH]c(=O)[nH]c23)cc1)Nc1cc(C(F)(F)F)ccc1N1CCOCC1 | 5.28 | 
18 | 4.49 | O=c1[nH]c2nccc(Oc3ccc(NS(=O)(=O)c4ccccc4F)cc3)c2[nH]1 | 4.21 | 
19 | 7.57 | COc1cc(Cl)c(C(F)(F)F)cc1NC(=O)Nc1ccc(Oc2ccnc3[nH]c(=O)[nH]c23)cc1 | 5.80 | metabolised at 10 µM [4]: 8%
20 | < 4.00 | O=c1[nH]c2nccc(Oc3ccc(NS(=O)(=O)c4ccc(C(F)(F)F)cc4)cc3)c2[nH]1 | 4.39 | 
21 | < 4.00 | O=C(Nc1ccc(Cl)cc1)Nc1ccc(Oc2ccnc3[nH]c(=O)[nH]c23)cc1 | < 4.00 | 
22 | 6.52 | CCn1c(=O)n(CC)c2c(Oc3ccc(NC(=O)Nc4ccc(Cl)c(C(F)(F)F)c4)cc3)ccnc21 | 4.66 | 

Row | pIC50 [2] | SMILES | pIC50 [1] | further results
23 | 4.80 | O=C(Nc1ccc(Oc2ccnc3[nH]c(=O)[nH]c23)cc1)c1ccc(Cl)c(C(F)(F)F)c1 | 5.09 | 
24 | < 4.00 | O=C(Nc1ccc(Oc2ccnc3[nH]c(=O)[nH]c23)cc1)c1ccccc1 | < 4.00 | 
25 | 7.66 | Cn1c(=O)[nH]c2nccc(Oc3ccc(NC(=O)Nc4ccc(Cl)c(C(F)(F)F)c4)cc3)c21 | 5.28 | clearance [3]: 0.283 mL/min; metabolised at 10 µM [4]: 11%; Cmax [5]: 1150 nM; Cmax [6]: 2450 nM; half-life [7]: 2.58 h; half-life [8]: 9.72 h; AUC [9]: 3.26 µM·h; CL [10]: 0.006 L/h; AUC [11]: 4.5 µM·h
26 | < 4.00 | O=c1[nH]c2nccc(Oc3ccc(NS(=O)(=O)c4ccc(F)cc4)cc3)c2[nH]1 |  | 
27 |  | O=C(Cc1cccc(C(F)(F)F)c1)Nc1ccc(Oc2ccnc3[nH]c(=O)[nH]c23)cc1 | 5.30 | 
28 | < 4.00 | O=c1[nH]c2nccc(Oc3ccc(NS(=O)(=O)c4ccc(Cl)cc4)cc3)c2[nH]1 | 4.41 | 
29 | < 4.00 | O=C(Nc1ccc(Oc2ccnc3[nH]c(=O)[nH]c23)cc1)c1cc(F)cc(N2CCOCC2)c1 | 4.36 | 
30 | 7.28 | O=C(Nc1ccc(Oc2ccnc3[nH]c(=O)[nH]c23)cc1)Nc1cc(C(F)(F)F)ccc1F | 5.48 | 
31 | 6.07 | O=c1[nH]c2nccc(Oc3ccc(NS(=O)(=O)c4ccccc4)cc3)c2[nH]1 | 4.20 | metabolised at 10 µM [4]: 5%
32 | 7.35 | Cn1c(=O)[nH]c2c(Oc3ccc(NC(=O)Nc4ccc(Cl)c(C(F)(F)F)c4)cc3)ccnc21 | 5.43 | AUC [12]: 9.46 µM·h; half-life [13]: 4.72 h; clearance [14]: 0.833 mL/min; CL (Muscle tissue): 0.009 L/h; AUC [15]: 16.4 µM·h; half-life [16]: 4.35 h; Cmax [17]: 3230 nM; Cmax [18]: 8080 nM
33 |  | CNC(=O)c1cc(Oc2ccc(NC(=O)Nc3ccc(Cl)c(C(F)(F)F)c3)cc2)ccn1 [SORAFENIB] | 5.30 | 
34 | 7.00 | O=C(Nc1ccc(Oc2ccnc3[nH]c(=O)[nH]c23)cc1)Nc1cc(Cl)cc(C(F)(F)F)c1 | 4.89 | 
35 |  | COc1cccc(CC(=O)Nc2ccc(Oc3ccnc4[nH]c(=O)[nH]c34)cc2)c1 | 4.40 | 
36 | 7.34 | Cn1c(=O)[nH]c2c(Oc3ccc(NC(=O)Nc4cc(C(F)(F)F)ccc4F)cc3)ccnc21 | 5.71 | 
37 | 7.68 | O=C(Nc1ccc(Oc2ccnc3[nH]c(=O)[nH]c23)cc1)Nc1cccc(OC(F)(F)F)c1 | < 4.00 | 
38 | 7.07 | O=c1[nH]c2nccc(Oc3ccc(NC(=S)Nc4ccc(Cl)c(C(F)(F)F)c4)cc3)c2[nH]1 | 4.97 | 
39 | 7.40 | O=C(Nc1ccc(Sc2ccnc3[nH]c(=O)[nH]c23)cc1)Nc1ccc(Cl)c(C(F)(F)F)c1 | 5.68 | 
40 | 4.91 | O=c1[nH]c2nccc(Oc3ccc(NS(=O)(=O)c4cccs4)cc3)c2[nH]1 | 4.81 | 
41 | 7.21 | Cn1c(=O)n(C)c2c(Oc3ccc(NC(=O)Nc4ccc(Cl)c(C(F)(F)F)c4)cc3)ccnc21 | 5.32 | 
42 | < 4.00 | O=C(Nc1ccccc1)Nc1ccc(Oc2ccnc3[nH]c(=O)[nH]c23)cc1 | < 4.00 | 
43 | 6.79 | Cn1c(=O)[nH]c2nccc(Oc3ccc(NC(=O)Nc4cccc(C(C)(C)C)c4)cc3)c21 | 5.55 | 
44 | < 4.00 | O=c1[nH]c2nccc(Oc3ccc(NS(=O)(=O)c4ccc(Cl)c(C(F)(F)F)c4)cc3)c2[nH]1 | 4.39 | 
